From PMC12657724, “Structures of a lipin/Pah phosphatidic acid phosphatase in distinct catalytic states reveal a signature motif for substrate recognition” (The Journal of Biological Chemistry, 2025)

Molecular target: T1, Tt Pah2 (WT, residues 1-321) (Tetrahymena thermophila, UniProt I7MFJ3)
T1 construct: gene TTHERM_00215970; residues 1-321, codon-optimised, N-terminal His-tag (pET28) kept, E. coli BL21(DE3) RIPL
T1 sequence (I7MFJ3 1-321): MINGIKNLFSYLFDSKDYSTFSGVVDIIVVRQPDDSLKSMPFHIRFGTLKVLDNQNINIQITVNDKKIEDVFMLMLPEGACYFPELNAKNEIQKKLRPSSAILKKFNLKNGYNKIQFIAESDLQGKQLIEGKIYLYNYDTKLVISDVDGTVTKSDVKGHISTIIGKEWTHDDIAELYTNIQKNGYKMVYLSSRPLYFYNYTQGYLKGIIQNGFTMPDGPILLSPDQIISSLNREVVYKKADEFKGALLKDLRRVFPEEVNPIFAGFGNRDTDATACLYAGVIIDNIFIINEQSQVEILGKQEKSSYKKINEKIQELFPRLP
Assay: absorbance at […] nm (p-nitrophenol release)
Format: biochemical
Settings: Mg2+, pH 8, ambient temperature, 56 μM enzyme; very slow turnover

O=[N+]([O-])c1ccc(OP(=O)(O)O)cc1 [pNPP] was tested, and the “absorbance at 405 nm (p-nitrophenol release)” value was “we were able to observe detectable pNPP hydrolysis, albeit at a low rate”.
